From publication PMC3389279 (Bioorganic & medicinal chemistry letters, 2012)
“Also recorded” adds a separate entry of the source.

What was measured:
[1] = tested on: 68 GPCRs, ion channels and transporters; assay: Lead Profiling screen at Ricerca, radioligand binding assays
[2] = Intrinsic clearance in human liver microsomes; type: in vitro ADME
NKCC1 [3] = molecular target: T1, NKCC1 (Homo sapiens, UniProt P55011); assay: 86Rb uptake assay, NKCC1 function; type: cell-based; settings: concentrations up to 100 µM
T1 sequence (P55011 1-1212): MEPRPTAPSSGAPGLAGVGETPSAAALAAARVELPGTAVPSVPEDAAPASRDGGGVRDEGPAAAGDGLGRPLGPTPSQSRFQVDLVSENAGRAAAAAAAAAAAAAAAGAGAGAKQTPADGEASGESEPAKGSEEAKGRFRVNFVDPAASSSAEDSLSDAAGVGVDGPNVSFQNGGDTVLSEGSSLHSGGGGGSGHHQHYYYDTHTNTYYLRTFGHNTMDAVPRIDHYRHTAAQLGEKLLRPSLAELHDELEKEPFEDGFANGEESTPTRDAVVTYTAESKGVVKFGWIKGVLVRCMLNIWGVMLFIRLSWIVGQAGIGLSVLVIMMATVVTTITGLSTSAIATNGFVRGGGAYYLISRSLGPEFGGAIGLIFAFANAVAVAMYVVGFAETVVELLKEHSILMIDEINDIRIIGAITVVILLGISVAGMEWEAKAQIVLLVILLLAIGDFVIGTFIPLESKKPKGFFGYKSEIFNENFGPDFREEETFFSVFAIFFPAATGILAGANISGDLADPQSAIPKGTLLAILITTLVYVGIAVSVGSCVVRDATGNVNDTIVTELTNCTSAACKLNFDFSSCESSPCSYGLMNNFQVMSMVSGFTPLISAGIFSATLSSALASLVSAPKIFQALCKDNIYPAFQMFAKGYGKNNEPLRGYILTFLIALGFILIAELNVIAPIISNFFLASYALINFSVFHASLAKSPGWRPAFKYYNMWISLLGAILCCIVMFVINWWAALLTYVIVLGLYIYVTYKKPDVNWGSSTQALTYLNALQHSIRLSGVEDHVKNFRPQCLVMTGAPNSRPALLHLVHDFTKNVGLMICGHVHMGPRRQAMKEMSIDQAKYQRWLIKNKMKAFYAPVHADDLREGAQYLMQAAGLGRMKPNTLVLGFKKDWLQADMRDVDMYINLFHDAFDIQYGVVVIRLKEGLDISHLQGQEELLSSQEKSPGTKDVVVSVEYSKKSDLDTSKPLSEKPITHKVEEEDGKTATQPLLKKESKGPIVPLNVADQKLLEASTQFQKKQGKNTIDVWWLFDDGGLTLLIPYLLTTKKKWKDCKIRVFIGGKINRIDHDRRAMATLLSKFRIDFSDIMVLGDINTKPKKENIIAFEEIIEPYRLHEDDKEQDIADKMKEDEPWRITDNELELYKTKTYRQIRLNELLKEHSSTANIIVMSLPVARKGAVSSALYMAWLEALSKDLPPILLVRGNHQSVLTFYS

NKCC1 [4] = molecular target: T1, NKCC1; settings: KCC2 versus NKCC1; cited from earlier work
[5] = Intrinsic clearance in rat liver microsomes; type: in vitro ADME
KCC2 [6] = molecular target: T2, KCC2 (Homo sapiens, UniProt Q9H2X9); settings: intrathecal injection; cited from earlier work
T2 sequence (Q9H2X9 1-1139): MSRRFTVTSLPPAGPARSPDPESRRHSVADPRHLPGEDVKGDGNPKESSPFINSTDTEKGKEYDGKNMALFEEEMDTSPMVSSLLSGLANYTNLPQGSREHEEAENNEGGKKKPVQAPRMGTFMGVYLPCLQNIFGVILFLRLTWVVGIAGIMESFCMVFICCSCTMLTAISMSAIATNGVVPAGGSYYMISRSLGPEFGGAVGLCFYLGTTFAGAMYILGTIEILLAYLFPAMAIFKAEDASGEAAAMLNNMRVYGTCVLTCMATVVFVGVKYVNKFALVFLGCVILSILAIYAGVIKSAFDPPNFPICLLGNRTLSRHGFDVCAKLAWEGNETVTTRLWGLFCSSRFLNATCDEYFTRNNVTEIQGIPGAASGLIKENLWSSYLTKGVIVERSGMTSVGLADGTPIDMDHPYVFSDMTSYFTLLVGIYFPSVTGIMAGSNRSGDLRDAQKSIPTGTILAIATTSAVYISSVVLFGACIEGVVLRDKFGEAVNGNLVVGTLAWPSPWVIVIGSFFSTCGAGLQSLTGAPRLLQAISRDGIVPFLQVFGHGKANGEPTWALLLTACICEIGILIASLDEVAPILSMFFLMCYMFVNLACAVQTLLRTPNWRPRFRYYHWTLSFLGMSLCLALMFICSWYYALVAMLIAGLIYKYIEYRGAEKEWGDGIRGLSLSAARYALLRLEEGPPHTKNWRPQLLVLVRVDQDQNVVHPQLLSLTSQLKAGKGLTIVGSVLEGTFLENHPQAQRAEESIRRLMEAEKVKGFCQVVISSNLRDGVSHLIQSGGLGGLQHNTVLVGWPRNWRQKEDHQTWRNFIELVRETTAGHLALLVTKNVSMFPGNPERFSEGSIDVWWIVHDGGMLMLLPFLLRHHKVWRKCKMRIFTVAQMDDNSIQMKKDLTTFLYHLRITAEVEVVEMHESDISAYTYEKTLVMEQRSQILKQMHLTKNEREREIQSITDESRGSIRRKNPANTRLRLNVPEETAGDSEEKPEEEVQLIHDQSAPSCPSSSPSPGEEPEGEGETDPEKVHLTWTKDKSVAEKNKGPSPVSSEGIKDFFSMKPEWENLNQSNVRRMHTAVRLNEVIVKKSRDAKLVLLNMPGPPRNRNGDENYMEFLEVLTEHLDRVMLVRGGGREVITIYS

KCC2 [7] = molecular target: T2, KCC2; assay: 86Rb uptake assay in KCC2-overexpressing HEK293 cells; type: cell-based; settings: first generation libraries, 2-pyridyl-based analogs

Row | KCC2 antagonist activity (in words) (KCC2 [7]) | SMILES | inhibition of NKCC1 function (in words) (NKCC1 [3]) | selectivity versus NKCC1 (NKCC1 [4]) [fold] | also measured
1 |  | Cc1csc(N(C(=O)CSc2ccc(-c3ccccc3)nn2)C2CC2)n1 [11k] | weak, partial inhibition; also recorded: weak partial inhibition |  | inhibition in ancillary pharmacology panel ([1]; 10 µM, 68 targets): ≤ 50%; activity in ancillary pharmacology panel (in words) ([1]; panel of 68 GPCRs, ion channels and transporters): no activity; Intrinsic clearance (in words) [2]: rapidly cleared in vitro
2 |  | Cc1csc(NC(=O)CSc2ccc(-c3ccccc3)nn2)n1 [compound 1] |  | > 100 | 
3 |  | Cc1csc(N(C)C(=O)CSc2ccc(-c3ccccc3)nn2)n1 [compound 2] | weak, partial inhibition; also recorded: weak partial inhibition | > 100 | CLint scaled [5]: 294 mL/min/kg; CLint scaled [2]: 229 mL/min/kg; block of KCC2 in spinal cord (in words) (KCC2 [6]): used successfully to block KCC2 in spinal cord
4 | weak | Cc1csc(NC(=O)CSc2ccc(-c3ccccc3)cn2)n1 [compound 9] |  |  | 
5 | weak | Cc1csc(N(C)C(=O)CSc2ccc(-c3ccccc3)cn2)n1 [compound 10] |  |  | 
